# From the kinase profiling compilation of Christmann-Franck et al. (2016)
# What was measured:
# DGKG (human) = DGKG (human) (UniProt P49619); assay: ADP detection assay-Luminescence
# PIK3C3 (human) = PIK3C3 (human) (UniProt Q8NEB9); assay: ADP detection assay-Luminescence
# PIP4K2A (human) = PIP4K2A (human) (UniProt P48426); assay: ADP detection assay-Luminescence
# PIK3CB PIK3R1 (human) = PIK3CB PIK3R1 (human) (UniProt P27986+P42338); assay: ADP detection assay-Luminescence
# PI4KB (human) = PI4KB (human) (UniProt Q9UBF8); assay: ADP detection assay-Luminescence
# DGKZ (human) = DGKZ (human) (UniProt Q13574); assay: ADP detection assay-Luminescence
# PIK3CG (human) = PIK3CG (human) (UniProt P48736); assay: ADP detection assay-Luminescence
# PIK3CG (human), sequence (P48736 whole entry, looked up): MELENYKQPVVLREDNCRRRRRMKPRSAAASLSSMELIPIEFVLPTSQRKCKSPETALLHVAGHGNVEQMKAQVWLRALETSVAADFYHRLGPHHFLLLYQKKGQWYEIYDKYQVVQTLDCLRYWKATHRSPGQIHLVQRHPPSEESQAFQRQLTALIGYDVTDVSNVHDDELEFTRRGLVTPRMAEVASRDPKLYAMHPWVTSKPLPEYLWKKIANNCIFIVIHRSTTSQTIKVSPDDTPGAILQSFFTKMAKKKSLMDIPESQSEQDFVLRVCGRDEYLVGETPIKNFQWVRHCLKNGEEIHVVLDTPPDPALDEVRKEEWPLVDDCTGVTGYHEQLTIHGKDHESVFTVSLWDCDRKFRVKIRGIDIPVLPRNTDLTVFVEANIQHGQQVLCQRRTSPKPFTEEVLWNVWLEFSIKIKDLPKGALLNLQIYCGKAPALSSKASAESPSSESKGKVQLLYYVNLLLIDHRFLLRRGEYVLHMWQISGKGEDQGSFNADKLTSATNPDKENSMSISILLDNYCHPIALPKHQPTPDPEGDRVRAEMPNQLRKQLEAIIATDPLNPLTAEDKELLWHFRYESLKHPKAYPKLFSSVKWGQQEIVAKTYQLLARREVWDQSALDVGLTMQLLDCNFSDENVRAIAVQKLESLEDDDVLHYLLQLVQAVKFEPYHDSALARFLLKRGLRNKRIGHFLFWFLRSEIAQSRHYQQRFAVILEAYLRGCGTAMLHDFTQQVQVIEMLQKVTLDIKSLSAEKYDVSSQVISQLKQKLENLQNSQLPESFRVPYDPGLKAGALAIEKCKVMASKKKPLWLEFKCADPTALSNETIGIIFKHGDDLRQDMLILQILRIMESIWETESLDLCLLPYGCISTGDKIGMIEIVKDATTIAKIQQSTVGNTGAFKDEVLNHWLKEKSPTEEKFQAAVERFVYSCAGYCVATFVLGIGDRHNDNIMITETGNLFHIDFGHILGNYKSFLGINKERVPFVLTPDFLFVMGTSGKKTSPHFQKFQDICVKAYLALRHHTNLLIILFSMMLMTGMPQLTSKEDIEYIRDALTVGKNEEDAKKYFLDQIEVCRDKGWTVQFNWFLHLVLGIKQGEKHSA
# PIK3CD PIK3R1 (human) = PIK3CD PIK3R1 (human) (UniProt O00329+P27986); assay: ADP detection assay-Luminescence
# CHKA (human) = CHKA (human) (UniProt P35790); assay: ADP detection assay-Luminescence
# CHKB (human) = CHKB (human) (UniProt Q9Y259); assay: ADP detection assay-Luminescence
# SPHK1 (human) = SPHK1 (human) (UniProt Q9NYA1); assay: ADP detection assay-Luminescence
# SPHK1 (human), sequence (Q9NYA1 whole entry, looked up): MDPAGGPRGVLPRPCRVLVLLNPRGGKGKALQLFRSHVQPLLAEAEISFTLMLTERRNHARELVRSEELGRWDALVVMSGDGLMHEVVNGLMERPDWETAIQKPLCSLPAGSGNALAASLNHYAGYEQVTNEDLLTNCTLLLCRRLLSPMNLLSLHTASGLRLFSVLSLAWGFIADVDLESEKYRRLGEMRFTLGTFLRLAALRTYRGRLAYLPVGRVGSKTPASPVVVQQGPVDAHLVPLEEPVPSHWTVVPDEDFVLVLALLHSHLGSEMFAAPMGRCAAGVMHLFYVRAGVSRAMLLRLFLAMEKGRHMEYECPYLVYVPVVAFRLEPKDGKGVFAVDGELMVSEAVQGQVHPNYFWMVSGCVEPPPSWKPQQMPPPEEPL
# PIK3CA PIK3R1 (human) = PIK3CA PIK3R1 (human) (UniProt P27986+P42336); assay: ADP detection assay-Luminescence
# PI4KA (human) = PI4KA (human) (UniProt P42356); assay: ADP detection assay-Luminescence
# PI4KA (human), sequence (P42356 whole entry, looked up): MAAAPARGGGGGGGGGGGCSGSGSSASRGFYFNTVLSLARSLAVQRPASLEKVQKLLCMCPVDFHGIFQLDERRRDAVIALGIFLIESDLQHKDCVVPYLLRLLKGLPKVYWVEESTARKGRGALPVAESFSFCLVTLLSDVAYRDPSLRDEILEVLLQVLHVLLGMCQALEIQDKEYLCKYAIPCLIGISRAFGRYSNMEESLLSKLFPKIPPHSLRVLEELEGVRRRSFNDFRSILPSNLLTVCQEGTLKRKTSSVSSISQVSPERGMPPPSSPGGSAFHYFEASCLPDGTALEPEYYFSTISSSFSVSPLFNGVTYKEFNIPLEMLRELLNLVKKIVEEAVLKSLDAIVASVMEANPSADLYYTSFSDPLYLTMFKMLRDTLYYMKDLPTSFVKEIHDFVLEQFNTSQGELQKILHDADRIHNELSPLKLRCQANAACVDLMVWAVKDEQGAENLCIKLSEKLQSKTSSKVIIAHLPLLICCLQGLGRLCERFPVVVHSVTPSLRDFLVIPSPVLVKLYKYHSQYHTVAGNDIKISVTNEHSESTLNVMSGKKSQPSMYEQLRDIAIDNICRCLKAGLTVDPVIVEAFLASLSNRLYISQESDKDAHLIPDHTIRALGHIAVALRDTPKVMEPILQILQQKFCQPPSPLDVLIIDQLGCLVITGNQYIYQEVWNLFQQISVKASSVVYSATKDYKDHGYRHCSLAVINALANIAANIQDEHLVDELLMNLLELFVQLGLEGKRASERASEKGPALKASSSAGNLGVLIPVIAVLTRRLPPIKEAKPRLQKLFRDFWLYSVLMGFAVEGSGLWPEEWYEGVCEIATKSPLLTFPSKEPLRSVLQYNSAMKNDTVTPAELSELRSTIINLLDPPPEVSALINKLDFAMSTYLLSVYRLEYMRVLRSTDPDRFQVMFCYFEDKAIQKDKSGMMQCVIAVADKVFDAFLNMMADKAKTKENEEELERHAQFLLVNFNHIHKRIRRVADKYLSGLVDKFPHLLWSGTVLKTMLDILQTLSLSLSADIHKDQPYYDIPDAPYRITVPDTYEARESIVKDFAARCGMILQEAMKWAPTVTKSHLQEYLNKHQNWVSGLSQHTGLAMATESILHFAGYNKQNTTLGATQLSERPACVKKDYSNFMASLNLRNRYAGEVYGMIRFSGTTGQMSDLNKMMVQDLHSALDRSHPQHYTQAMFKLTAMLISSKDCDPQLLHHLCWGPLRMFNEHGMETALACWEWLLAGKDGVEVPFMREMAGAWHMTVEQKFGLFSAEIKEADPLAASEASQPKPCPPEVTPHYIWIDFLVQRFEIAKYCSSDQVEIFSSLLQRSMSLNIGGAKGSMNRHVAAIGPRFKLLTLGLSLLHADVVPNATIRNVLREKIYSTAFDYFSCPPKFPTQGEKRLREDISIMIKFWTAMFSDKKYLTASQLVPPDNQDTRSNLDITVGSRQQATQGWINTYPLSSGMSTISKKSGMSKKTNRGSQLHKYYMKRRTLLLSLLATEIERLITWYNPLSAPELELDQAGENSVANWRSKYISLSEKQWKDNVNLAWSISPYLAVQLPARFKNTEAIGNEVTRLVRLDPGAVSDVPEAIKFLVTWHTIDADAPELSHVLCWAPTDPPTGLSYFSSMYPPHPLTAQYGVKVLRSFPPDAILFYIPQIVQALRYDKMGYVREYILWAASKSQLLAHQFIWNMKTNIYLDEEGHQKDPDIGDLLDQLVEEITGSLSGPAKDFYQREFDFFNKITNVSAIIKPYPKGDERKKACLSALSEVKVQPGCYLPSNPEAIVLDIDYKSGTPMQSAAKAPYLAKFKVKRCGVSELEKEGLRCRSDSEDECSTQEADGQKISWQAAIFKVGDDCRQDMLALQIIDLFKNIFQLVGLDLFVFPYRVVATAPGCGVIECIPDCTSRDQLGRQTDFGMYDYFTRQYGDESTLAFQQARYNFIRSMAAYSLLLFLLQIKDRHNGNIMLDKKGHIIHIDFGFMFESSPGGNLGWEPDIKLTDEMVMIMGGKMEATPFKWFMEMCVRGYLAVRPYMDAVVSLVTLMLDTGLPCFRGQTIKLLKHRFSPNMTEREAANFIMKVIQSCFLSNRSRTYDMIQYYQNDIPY
# DGKB (human) = DGKB (human) (UniProt Q9Y6T7); assay: ADP detection assay-Luminescence
# SPHK2 (human) = SPHK2 (human) (UniProt Q9NRA0); assay: ADP detection assay-Luminescence
# NUAK1 (human) = NUAK1 (human) (UniProt O60285); assay: radiometric filter-binding kinase assay
# MKNK1 (human) = MKNK1 (human) (UniProt Q9BUB5); assay: radiometric filter-binding kinase assay
# MKNK1 (human), sequence (Q9BUB5 whole entry, looked up): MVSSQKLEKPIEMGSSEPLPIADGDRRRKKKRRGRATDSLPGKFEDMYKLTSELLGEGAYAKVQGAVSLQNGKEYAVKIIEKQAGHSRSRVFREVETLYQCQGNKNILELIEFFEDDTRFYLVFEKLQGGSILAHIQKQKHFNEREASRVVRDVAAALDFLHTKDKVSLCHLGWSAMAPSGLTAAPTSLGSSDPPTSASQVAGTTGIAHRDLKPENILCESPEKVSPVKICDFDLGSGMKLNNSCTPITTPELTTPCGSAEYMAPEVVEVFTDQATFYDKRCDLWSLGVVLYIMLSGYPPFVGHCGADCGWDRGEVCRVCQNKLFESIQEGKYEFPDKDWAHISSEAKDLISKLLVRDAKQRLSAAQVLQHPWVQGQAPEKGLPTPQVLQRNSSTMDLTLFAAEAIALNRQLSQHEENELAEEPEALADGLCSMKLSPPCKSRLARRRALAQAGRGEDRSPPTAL
# MAPK11 (human) = MAPK11 (human) (UniProt Q15759); assay: radiometric filter-binding kinase assay
# IKBKB (human) = IKBKB (human) (UniProt O14920); assay: radiometric filter-binding kinase assay
# CSK (human) = CSK (human) (UniProt P41240); assay: radiometric filter-binding kinase assay
# EEF2K (human) = EEF2K (human) (UniProt O00418); assay: radiometric filter-binding kinase assay
# MAPK8 (human) = MAPK8 (human) (UniProt P45983); assay: radiometric filter-binding kinase assay
# MAPK8 (human), sequence (P45983 whole entry, looked up): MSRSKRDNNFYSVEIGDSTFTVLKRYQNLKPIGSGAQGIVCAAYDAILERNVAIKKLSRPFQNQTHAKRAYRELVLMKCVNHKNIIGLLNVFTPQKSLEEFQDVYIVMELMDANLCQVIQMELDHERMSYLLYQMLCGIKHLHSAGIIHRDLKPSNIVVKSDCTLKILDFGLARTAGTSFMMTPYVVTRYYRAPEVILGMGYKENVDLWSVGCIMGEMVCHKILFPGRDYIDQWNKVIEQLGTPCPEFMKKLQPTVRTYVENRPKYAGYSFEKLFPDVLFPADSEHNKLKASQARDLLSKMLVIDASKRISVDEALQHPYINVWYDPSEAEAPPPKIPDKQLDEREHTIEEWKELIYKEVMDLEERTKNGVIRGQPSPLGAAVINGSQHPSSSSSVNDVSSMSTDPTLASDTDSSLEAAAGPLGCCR
# MAPK10 (human) = MAPK10 (human) (UniProt P53779); assay: radiometric filter-binding kinase assay
# MARK2 (human) = MARK2 (human) (UniProt Q7KZI7); assay: radiometric filter-binding kinase assay
# MAP2K1 (human) = MAP2K1 (human) (UniProt Q02750); assay: radiometric filter-binding kinase assay
# MARK4 (human) = MARK4 (human) (UniProt Q96L34); assay: radiometric filter-binding kinase assay
# RPS6KA1 KD1 KD2 (human) = RPS6KA1 KD1 KD2 (human) (UniProt Q15418); assay: radiometric filter-binding kinase assay
# DYRK3 (human) = DYRK3 (human) (UniProt O43781); assay: radiometric filter-binding kinase assay
# AURKA (human) = AURKA (human) (UniProt O14965); assay: radiometric filter-binding kinase assay
# AURKA (human), sequence (O14965 whole entry, looked up): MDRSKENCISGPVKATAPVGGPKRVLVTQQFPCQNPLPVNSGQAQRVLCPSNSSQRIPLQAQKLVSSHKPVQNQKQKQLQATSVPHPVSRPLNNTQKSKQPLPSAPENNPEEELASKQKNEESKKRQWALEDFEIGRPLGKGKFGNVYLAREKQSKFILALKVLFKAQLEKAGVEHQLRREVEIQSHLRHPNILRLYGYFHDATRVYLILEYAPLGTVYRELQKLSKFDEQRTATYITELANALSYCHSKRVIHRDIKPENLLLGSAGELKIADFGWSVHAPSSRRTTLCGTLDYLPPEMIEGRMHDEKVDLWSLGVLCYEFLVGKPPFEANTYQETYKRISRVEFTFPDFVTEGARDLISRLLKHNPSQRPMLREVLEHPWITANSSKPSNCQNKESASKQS
compound,measurement,setting,value
CNc1nc(-c2ccc3c(N)n[nH]c3c2)cc(N2C[C@@H](C(=O)NC3CCCCC3)CC[C@H]2C)n1,residual activity,DGKG (human); compound 0.1 µM,99%
same,residual activity,DGKG (human); compound 1.0 µM,100%
same,residual activity,DGKG (human); compound 10.0 µM,101%
same,residual activity,PIK3C3 (human); compound 0.1 µM,96%
same,residual activity,PIK3C3 (human); compound 1.0 µM,102%
same,residual activity,PIK3C3 (human); compound 10.0 µM,89%
same,residual activity,PIP4K2A (human); compound 0.1 µM,102%
same,residual activity,PIP4K2A (human); compound 1.0 µM,97%
same,residual activity,PIP4K2A (human); compound 10.0 µM,86%
same,residual activity,PIK3CB PIK3R1 (human); compound 0.1 µM,102%
same,residual activity,PIK3CB PIK3R1 (human); compound 1.0 µM,108%
same,residual activity,PIK3CB PIK3R1 (human); compound 10.0 µM,97%
same,residual activity,PI4KB (human); compound 0.1 µM,99%
same,residual activity,PI4KB (human); compound 1.0 µM,89%
same,residual activity,PI4KB (human); compound 10.0 µM,97%
same,residual activity,DGKZ (human); compound 0.1 µM,110%
same,residual activity,DGKZ (human); compound 1.0 µM,86%
same,residual activity,DGKZ (human); compound 10.0 µM,101%
same,residual activity,PIK3CG (human); compound 0.1 µM,98%
same,residual activity,PIK3CG (human); compound 1.0 µM,83%
same,residual activity,PIK3CG (human); compound 10.0 µM,70%
same,residual activity,PIK3CD PIK3R1 (human); compound 0.1 µM,119%
same,residual activity,PIK3CD PIK3R1 (human); compound 1.0 µM,104%
same,residual activity,PIK3CD PIK3R1 (human); compound 10.0 µM,73%
same,residual activity,CHKA (human); compound 0.1 µM,102%
same,residual activity,CHKA (human); compound 1.0 µM,94%
same,residual activity,CHKA (human); compound 10.0 µM,101%
same,residual activity,CHKB (human); compound 0.1 µM,113%
same,residual activity,CHKB (human); compound 1.0 µM,95%
same,residual activity,CHKB (human); compound 10.0 µM,87%
same,residual activity,SPHK1 (human); compound 0.1 µM,106%
same,residual activity,SPHK1 (human); compound 1.0 µM,102%
same,residual activity,SPHK1 (human); compound 10.0 µM,94%
same,residual activity,PIK3CA PIK3R1 (human); compound 0.1 µM,106%
same,residual activity,PIK3CA PIK3R1 (human); compound 1.0 µM,105%
same,residual activity,PIK3CA PIK3R1 (human); compound 10.0 µM,104%
same,residual activity,PI4KA (human); compound 0.1 µM,100%
same,residual activity,PI4KA (human); compound 1.0 µM,94%
same,residual activity,PI4KA (human); compound 10.0 µM,103%
same,residual activity,DGKB (human); compound 0.1 µM,99%
same,residual activity,DGKB (human); compound 1.0 µM,100%
same,residual activity,DGKB (human); compound 10.0 µM,93%
same,residual activity,SPHK2 (human); compound 0.1 µM,103%
same,residual activity,SPHK2 (human); compound 1.0 µM,100%
same,residual activity,SPHK2 (human); compound 10.0 µM,91%
same,residual activity,NUAK1 (human); compound 0.01 µM,120%
same,residual activity,NUAK1 (human); compound 0.1 µM,105%
same,residual activity,NUAK1 (human); compound 1.0 µM,47%
same,residual activity,MKNK1 (human); compound 0.01 µM,106%
same,residual activity,MKNK1 (human); compound 0.1 µM,108%
same,residual activity,MKNK1 (human); compound 1.0 µM,111%
same,residual activity,MAPK11 (human); compound 0.01 µM,113%
same,residual activity,MAPK11 (human); compound 0.1 µM,129%
same,residual activity,MAPK11 (human); compound 1.0 µM,109%
same,residual activity,IKBKB (human); compound 0.01 µM,105%
same,residual activity,IKBKB (human); compound 0.1 µM,112%
same,residual activity,IKBKB (human); compound 1.0 µM,98%
same,residual activity,CSK (human); compound 0.01 µM,103%
same,residual activity,CSK (human); compound 0.1 µM,104%
same,residual activity,CSK (human); compound 1.0 µM,100%
same,residual activity,EEF2K (human); compound 0.01 µM,108%
same,residual activity,EEF2K (human); compound 0.1 µM,100%
same,residual activity,EEF2K (human); compound 1.0 µM,97%
same,residual activity,MAPK8 (human); compound 0.01 µM,92%
same,residual activity,MAPK8 (human); compound 0.1 µM,108%
same,residual activity,MAPK8 (human); compound 1.0 µM,99%
same,residual activity,MAPK10 (human); compound 0.01 µM,106%
same,residual activity,MAPK10 (human); compound 0.1 µM,106%
same,residual activity,MAPK10 (human); compound 1.0 µM,100%
same,residual activity,MARK2 (human); compound 0.01 µM,113%
same,residual activity,MARK2 (human); compound 0.1 µM,114%
same,residual activity,MARK2 (human); compound 1.0 µM,109%
same,residual activity,MAP2K1 (human); compound 0.01 µM,86%
same,residual activity,MAP2K1 (human); compound 0.1 µM,101%
same,residual activity,MAP2K1 (human); compound 1.0 µM,84%
same,residual activity,MARK4 (human); compound 0.01 µM,106%
same,residual activity,MARK4 (human); compound 0.1 µM,114%
same,residual activity,MARK4 (human); compound 1.0 µM,102%
same,residual activity,RPS6KA1 KD1 KD2 (human); compound 0.01 µM,123%
same,residual activity,RPS6KA1 KD1 KD2 (human); compound 0.1 µM,113%
same,residual activity,RPS6KA1 KD1 KD2 (human); compound 1.0 µM,94%
same,residual activity,DYRK3 (human); compound 0.01 µM,100%
same,residual activity,DYRK3 (human); compound 0.1 µM,103%
same,residual activity,DYRK3 (human); compound 1.0 µM,93%
same,residual activity,AURKA (human); compound 0.01 µM,112%
same,residual activity,AURKA (human); compound 0.1 µM,115%
same,residual activity,AURKA (human); compound 1.0 µM,92%
